Holding throughout (format): functional
For test [1], the system named is SF-295. In words: Antiproliferative activity against human SF295 cells.
Test [2] concerns LOX IMVI. Briefly: Antiproliferative activity against human LOX IMVI cells. Particulars: for TGI: read-out: pTGI (converted).
Test [3] concerns UO-31. Briefly: Antiproliferative activity against human UO31 cells.
For test [4], the system named is SNB-75. Briefly: Antiproliferative activity against human SNB75 cells.
The test system of test [5] is CAKI-1. In words: Antiproliferative activity against human CAKI-1 cells.
Test [6] deals with HCT-116. In words: Antiproliferative activity against human HCT116 cells.
The test system of test [7] is 786-0. Briefly: Antiproliferative activity against human 786-0 cells.
Test [8] has as its system UACC-62. Briefly: Antiproliferative activity against human UACC62 cells.
Test [9] relates to SR. In words: Antiproliferative activity against human SR cells. Conditions: for TGI: read-out: pTGI (converted).
A short description of test [10]: Antiproliferative activity against human […] cells.
Test [11] concerns HCT-15. In words: Antiproliferative activity against human HCT15 cells.
The subject of test [12] is RPMI-8226. In words: Antiproliferative activity against human RPMI8226 cells.
The test system of test [13] is HOP-92. In words: Antiproliferative activity against human HOP92 cells. Conditions: for TGI: read-out: pTGI (converted).
For test [14], the system named is CCRF-CEM. Briefly: Antiproliferative activity against human CCRF-CEM cells.
The subject of test [15] is PC-3. In words: Antiproliferative activity against human PC3 cells.
For test [16], the system named is EKVX. Briefly: Antiproliferative activity against human EKVX cells.
The subject of test [17] is Hs-578T. In words: Antiproliferative activity against human HS578T cells.
The test system of test [18] is HL-60. Briefly: Antiproliferative activity against human HL60 cells.
The subject of test [19] is DU-145. Briefly: Antiproliferative activity against human DU145 cells.
Test [20] relates to SF-539. Briefly: Antiproliferative activity against human SF539 cells.
For test [21], the system named is SK-MEL-5. Briefly: Antiproliferative activity against human SK-MEL-5 cells.
In test [22] the test system is MOLT-4. Briefly: Antiproliferative activity against human MOLT4 cells.
Test [23] relates to RXF 393. In words: Antiproliferative activity against human RXF393 cells.

Bounds are passed on as bounds.

Consider eight compounds from ChEMBL document CHEMBL1140835, “Design, synthesis, and in vitro antitumor activity of new 1,4-diarylimidazole-2-ones and their 2-thione analogues” (2008).

With `COc1ccc(-n2cc(-c3ccc(OC)c(OC)c3)[nH]c2=S)cc1Cl`, the GI50 is 39.8 µM in [1]; greater than 100 µM in [2]; greater than 100 µM in [3]; 5.01 µM in test [4]; greater than 100 µM in test [5]; greater than 100 µM in [6]. In addition, the GI50 in [7] was 50.1 µM; in test [8], greater than 100 µM; in test [9], greater than 100 µM; in test [10], greater than 100 µM; in [11], greater than 100 µM; in test [12], greater than 100 µM. The concentration for 50% growth inhibition (GI50) in test [13] is 39.8 µM; in test [14], greater than 100 µM; in test [15], greater than 100 µM; in test [16], 39.8 µM; in [17] it was 39.8 µM; in [18], greater than 100 µM. The 50% growth inhibitory concentration (GI50) was greater than 100 µM in [19], 39.8 µM in test [20], greater than 100 µM in test [21] and 79.4 µM in [22].
As for `COc1cc(-c2cn(-c3ccc(Cl)cc3)c(=O)[nH]2)cc(OC)c1OC`, the 50% growth inhibitory concentration (GI50) in test [1], in test [3], in [4], in test [5], in [6] and in test [7] was greater than 100 µM throughout. For the same compound, the concentration for 50% growth inhibition (GI50) was greater than 100 µM in test [8]; 0.0316 µM in [9]; greater than 100 µM in [10]; greater than 100 µM in [23]; greater than 100 µM in test [11]; greater than 100 µM in test [12]. The GI50 in test [13] is greater than 100 µM; in test [14], greater than 100 µM; in test [15], greater than 100 µM; in test [16], greater than 100 µM; in test [17] it was greater than 100 µM; in test [18], 0.398 µM. Moreover, the GI50 in test [19] was greater than 100 µM; in test [20] it was greater than 100 µM; in [21], greater than 100 µM; in test [22], 0.0199 µM. Besides, in [9], the TGI is 39.8 µM.
As for `COc1ccc(-c2cn(-c3ccc(OC)c(OC)c3)c(=O)[nH]2)cc1`, the GI50 is greater than 100 µM in test [1]; greater than 100 µM in test [2]; greater than 100 µM in test [3]; 25.1 µM in test [4]; greater than 100 µM in test [5]; greater than 100 µM in test [6]. Also, the concentration for 50% growth inhibition (GI50) in test [7] was greater than 100 µM; in [8], greater than 100 µM; in [9], 0.1 µM; in test [10], 50.1 µM; in test [11], greater than 100 µM; in test [12] it was greater than 100 µM. For the same compound, the concentration for 50% growth inhibition (GI50) in test [13] is greater than 100 µM; in test [14], greater than 100 µM; in [15] it was greater than 100 µM; in test [16] it was greater than 100 µM; in test [17] it was greater than 100 µM; in [18], 39.8 µM. The 50% growth inhibitory concentration (GI50) in test [19] is greater than 100 µM; in test [20] it was greater than 100 µM; in test [21], 63.1 µM; in test [22], 1.58 µM. Moreover, the TGI in test [9] is 0.631 µM.
For `COc1ccc(-n2cc(-c3cc(OC)c(OC)c(OC)c3)[nH]c2=O)cc1Cl`, the concentration for 50% growth inhibition (GI50) is 39.8 µM in test [1]; greater than 100 µM in test [2]; greater than 100 µM in [3]; 6.31 µM in test [4]; greater than 100 µM in test [5]; greater than 100 µM in [6]. For the same compound, the GI50 was 25.1 µM in [7]; 50.1 µM in test [8]; 50.1 µM in test [9]; greater than 100 µM in test [10]; greater than 100 µM in [11]; greater than 100 µM in test [12]. The 50% growth inhibitory concentration (GI50) in test [13] was 15.8 µM; in test [14], greater than 100 µM; in test [15], greater than 100 µM; in test [16], greater than 100 µM; in [17] it was 31.6 µM; in [18], greater than 100 µM. The concentration for 50% growth inhibition (GI50) was 31.6 µM in test [20], greater than 100 µM in [21] and greater than 100 µM in test [22].
As for `COc1ccc(/C=C\c2cc(OC)c(OC)c(OC)c2)cc1O` [COMBRETASTATIN A4], the GI50 in [1] was 0.0631 µM; in test [2], 0.01 µM; in [3], 0.2 µM; in test [4], 0.794 µM; in test [5] it was 0.0398 µM; in [6] it was 0.0316 µM. In addition, the GI50 in [7] is 0.0199 µM; in test [8] it was 0.01 µM; in [9], 0.126 µM; in test [10] it was 50.1 µM; in test [23] it was 0.794 µM; in [11], 0.0316 µM. In addition, the GI50 in test [12] is 0.158 µM; in test [13], 0.2 µM; in test [14], 0.1 µM; in test [15], 0.0316 µM; in [16], 0.398 µM; in test [17] it was 0.158 µM. Also, the concentration for 50% growth inhibition (GI50) in [19] was 0.01 µM; in [20] it was 0.0398 µM; in test [21], 0.01 µM; in test [22], 0.1 µM. The TGI in test [2] is 12.6 µM; in [9], 79.4 µM; in [13] it was 39.8 µM.
On to `COc1cc(-n2cc(-c3ccccc3)[nH]c2=O)cc(OC)c1OC`, for which the GI50 is 39.8 µM in [1]; greater than 100 µM in [2]; 39.8 µM in [3]; 12.6 µM in test [4]; 39.8 µM in test [5]; 63.1 µM in test [6]. Moreover, the GI50 is 25.1 µM in test [7]; 39.8 µM in test [8]; greater than 100 µM in [9]; 31.6 µM in test [10]; 79.4 µM in [11]; greater than 100 µM in [12]. Moreover, the GI50 in [13] is 20 µM; in test [15] it was 39.8 µM; in test [16], 25.1 µM; in [17], 31.6 µM; in test [18], 63.1 µM; in test [19], 1.58 µM. Moreover, the values for the concentration for 50% growth inhibition (GI50) in [20], in [21] and in test [22] were 20 µM, 39.8 µM and greater than 100 µM, respectively.
On to `COc1ccc(-c2cn(-c3ccc(Cl)cc3)c(=S)[nH]2)cc1OC`, for which the 50% growth inhibitory concentration (GI50) in test [1] is 6.31 µM; in test [2] it was 1.58 µM; in test [3] it was 39.8 µM; in test [4] it was 15.8 µM; in [5] it was 3.16 µM; in [6] it was 3.98 µM. The GI50 is 6.31 µM in test [7]; 3.16 µM in test [9]; 6.31 µM in test [10]; 3.16 µM in [23]; 5.01 µM in test [11]; 3.98 µM in test [12]. In addition, the GI50 in test [13] is 0.316 µM; in test [14], greater than 100 µM; in test [15], 63.1 µM; in test [16], 12.6 µM; in [17], 20 µM; in test [18], 3.16 µM. In addition, the concentration for 50% growth inhibition (GI50) in test [19] is 12.6 µM; in test [20], 31.6 µM; in test [21], 3.16 µM; in test [22], greater than 100 µM. Further, the LC50 in [2] was 6.31 µM. For the same compound, the TGI in test [2] is 3.16 µM; in [13], 7.94 µM.
`COc1cc(-n2cc(-c3ccc(Cl)cc3)[nH]c2=O)cc(OC)c1OC`: the 50% growth inhibitory concentration (GI50) in [1] is 31.6 µM; in test [2] it was 63.1 µM; in test [3], 20 µM; in test [4], 25.1 µM; in test [5] it was 15.8 µM; in test [6], 31.6 µM. In addition, the GI50 in [7] was 15.8 µM; in [8] it was 25.1 µM; in [9], greater than 100 µM; in [11], greater than 100 µM; in test [12], 12.6 µM; in [14], less than 0.01 µM. Besides, the concentration for 50% growth inhibition (GI50) in [15] is 15.8 µM; in test [16] it was 31.6 µM; in [17], 79.4 µM; in test [18] it was greater than 100 µM; in test [19] it was 63.1 µM; in [20], 25.1 µM. The concentration for 50% growth inhibition (GI50) in test [21] is 31.6 µM; in test [22], greater than 100 µM.

Broadly, the GI50 is the concentration giving 50% growth inhibition. Broadly, the LC50 is the concentration lethal to half of the exposed cells or organisms.
